Measured values as given in patent US20190308987A1, “DUAL MODULATORS OF BOTH MU AND KAPPA OPIOID RECEPTORS” (priority 2016, published 2019).
Values joined by “and” are separate entries in the source; they are usually repeats but may differ in a detail not shown here. Equal entries are not always repeated. “Also recorded” adds a separate entry of the source.

Legend:
intestinal transit = assay: Charcoal meal test for gastrointestinal transit; type: in vivo, mice
Experimental: Forty-eight hours before testing, mice were placed in cages with raised mesh wire to suspend them above their bedding and prevent ingestion of feces or bedding. The animals were habituated for 24 h in the presence of food and water and then fasted for 24 h with free access to water as previously reported.^24 This time frame was chosen to deplete the intestine and colon of any feces. To maintain caloric intake and to avoid hypoglycemia, mice had access to a sugar water solution consisting of a final concentration of 5% dextrose for the first 8 h of the fasting period. […] At 30 min after the administration of the charcoal meal, the mice were euthanized by cervical dislocation, and the small intestine from the jejunum to the cecum was dissected and placed in cold saline to stop peristalsis. The distance traveled by the leading edge of the charcoal meal was measured relative to the total length of the small intestine, and the percentage of intestinal transit for each animal was calculated as percentage transit (charcoal distance)/(small intestinal length)×100. This is referred to as intestinal transit in the text.

[1] = biological target: T1, delta opioid receptor (DOR) (Homo sapiens, UniProt P41143); assay: Competitive radioligand binding, DOR ([3H]NTI); conditions: read-out: Ki (nM) ± SEM
T1 construct: expressed in transfected cells; host or cells: CHO cells (membranes)
Experimental: The details of the Radioligand Binding and Functional Studies that were used were described previously.^19 Chinese hamster ovarian (CHO) cell lines were used as monoclonal opioid receptor expressing cells. The μ, δ, and κ opioid receptors were labeled with [^3H]naloxone, ^3H-naltrindole ([^3H]NTI) and ^3H-nor-Binaltorphimine ([^3H]norBNI). The opioid receptor expressing cell membranes were incubated with the radioligands at different concentrations of the drug under investigation at 30° C. for 1 h. With the absence and presence of 10 μM naltrexone, specific binding was got as the difference in binding obtained. The specific binding of the drugs to the radioligand was calculated from data using linear regression analysis of Hill plots.
(§1) All samples were assayed in triplicate and repeated at least twice for a total of 3 independent determinations. Results were reported as mean values±SEM. Concentration-effect curves were fit by nonlinear regression to a one-site binding model, using GraphPad Prism software, to determine EC50 and Emax values. IC50 values were obtained from Hill plots and analyzed by linear regression using Microsoft Excel software. Binding Ki values were determined from IC50 values using the Cheng-Prusoff equation: Ki=IC50/l+([L]/KD), where [L] is the concentration of […] and KD is the KD of the radioligand.

MOR = MOR (Mus musculus, UniProt P42866); assay: [35S]GTPγS-binding assay, low MOR-expressing CHO cell line membranes; type: biochemical; parameters: expressed in transfected cells; host or cells: CHO cells (membranes)
Experimental: [^35S]GTPγS-binding Assays using a Low MOR-expressing CHO Cell Line: Cell membranes were incubated with varying concentrations of BNAP or 3 μM DAMGO (standard full agonist at MOR) in the presence of 10 μM GDP and 0.1 nM [^35S]GTPγS in assay buffer (50 mM Tris-HCl, pH 7.4, 3 mM MgCl2, 0.2 mM EGTA and 100 mM NaCl) for 90 min at 30° C. Nonspecific binding was determined using 10 μM unlabeled GTPγS. The incubation was terminated by rapid vacuum filtration through GF/B glass fiber filters. Bound radioactivity was determined by liquid scintillation spectrophotometry. Additional methodological details of the assay were described previously.^9
as §1

[2] = system: visceral pain (abdominal stretches); assay: Acetic acid induced writhing assay; type: in vivo, Swiss Webster mice
Experimental: To determine whether BNAP provides KOR mediated analgesia acetic acid-induced abdominal stretches were counted in mice. Swiss Webster mice were allowed to acclimate in individual testing cages for at least 10 min. Following the acclimation period the vehicle or BNAP was administered via s.c injection at the specified dose. After waiting for 10 min the mice were injected intraperitoneally with 10 mL/kg 0.6% (wt/vol) acetic acid and returned to their observation chambers. After the first 3 min, the number of stretches and abdominal contractions were counted for 15 min. All values shown for abdominal stretching experiments represent separate groups of mice (n=4-8) as each animal was tested only once and euthanized immediately after testing.
In order to confirm the involvement of the KOR in the analgesia produced by BNAP in the Acetic Acid Induced Writhing test, this test was performed in the presence of the KOR-specific antagonist nor-Binaltorphimine 2HCl (nor-BNI). According to previous literature, nor-BNI antagonist activity reaches optimal selectivity and efficacy in the writhing test at 24 hours post administration.^27, 28 These animals were injected sub-cutaneously with either 10 mg/kg nor-BNI or saline 24 hours prior to initiation of the writhing test. The writhing test was then performed as described above (n=5-6).

[3] = system: guinea pig ileum Longitudinal Muscle Myenteric Plexus (LMMP); assay: Electrical field stimulated contractions in LMMP strips
Experimental: Male albino guinea pigs (350-450 g) were euthanized by asphyxiation with CO2. A segment of ileum was removed and placed in a dissection bath filled with pre-oxygenated Krebs' solution (118 mM NaCl, 4.6 mM KCl, 1.3 mM NaH2PO4, 1.2 mM MgSO4, 25 mM NaHCO3, 11 mM glucose, and 2.5 mM CaCl2). Longitudinal Muscle Myenteric Plexus (LMMP) strips were prepared as previously described.^26 Electrical field stimulation (EFS) (50 V, 7.5 Hz, unless stated otherwise) was applied through concentric electrodes over longitudinal muscle or L-type stimulating electrodes over circular muscle strips to produce neurogenic contractions/relaxations. Drugs were added in single or cumulative doses depending on the assay to determine their inhibitory effects on the neurogenic responses.

Sequence of MOR (P42866 whole entry): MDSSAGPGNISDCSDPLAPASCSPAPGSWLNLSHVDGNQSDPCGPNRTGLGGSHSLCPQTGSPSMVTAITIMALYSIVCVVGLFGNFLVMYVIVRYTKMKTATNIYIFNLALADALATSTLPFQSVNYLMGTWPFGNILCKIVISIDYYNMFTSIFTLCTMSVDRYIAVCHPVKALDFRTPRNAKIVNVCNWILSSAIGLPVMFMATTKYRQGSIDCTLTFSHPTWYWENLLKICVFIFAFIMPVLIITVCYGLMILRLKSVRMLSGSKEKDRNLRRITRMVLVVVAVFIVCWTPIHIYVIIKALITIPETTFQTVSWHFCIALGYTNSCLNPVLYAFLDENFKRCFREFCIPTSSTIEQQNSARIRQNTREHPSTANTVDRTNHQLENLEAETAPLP
T1 sequence (P41143 whole entry): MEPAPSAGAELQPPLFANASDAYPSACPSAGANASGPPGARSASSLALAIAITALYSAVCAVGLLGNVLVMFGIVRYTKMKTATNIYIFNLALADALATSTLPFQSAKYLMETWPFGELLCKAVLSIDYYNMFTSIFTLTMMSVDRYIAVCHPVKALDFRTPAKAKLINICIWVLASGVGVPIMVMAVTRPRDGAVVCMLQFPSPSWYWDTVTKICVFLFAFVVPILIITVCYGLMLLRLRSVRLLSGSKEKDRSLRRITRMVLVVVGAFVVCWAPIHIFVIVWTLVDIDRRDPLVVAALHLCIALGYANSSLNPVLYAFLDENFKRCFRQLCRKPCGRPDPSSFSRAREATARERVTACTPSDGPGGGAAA

O=C(N[C@@H]1CC[C@@]2(O)[C@H]3Cc4ccc(O)c5c4[C@@]2(CCN3CC2CC2)C1O5)c1cc[n+](Cc2ccccc2)cc1 (stereo partly shown) [BNAP]
reduction of intestinal motility (intestinal transit; charcoal gavage, compound alone): 1.5 fold | reversal of morphine induced inhibition of intestinal motility (intestinal transit; mice treated acutely with morphine): unable to reverse morphine induced inhibition of intestinal motility | Ki [1]: 722 ± 65 nM | EC50 (MOR; EC50 (nM), 35S-GTP[γS]): 4.84 nM and 4.8 nM | % max of agonist (MOR; Emax relative to full agonist DAMGO): 14.6±0.9% | analgesia in presence of nor-BNI ([2]; 10 mg/kg nor-BNI s.c. 24 h before, morphine pelleted animals): effectively blocked the analgesia produced by BNAP | active concentration in hypernociceptive model ([2]; mice chronically treated with 75 mg morphine pellet): active at three fold lower concentration; also recorded: active at concentrations three-fold lower | number of writhes ([2]; s.c., naive mice): dose dependently reduced the number of writhes | IC50 ([3]; Cavia porcellus, guinea pig ileum LMMP, read-out: pIC50 for inhibition of EFS contractions (converted)): 13.8 nM | effect of nor-BNI on agonist concentration-response curve ([3]; nor-BNI pretreatment 15 min, dose dependent): dose dependently shifted the BNAP concentration-response curve to the right
